US12419962B2, “Quinazolines, pharmaceutical compositions, and therapeutic applications” (BioTheryX, Inc., priority 2022, dated 2025)

Target: T1, HiBiT-tagged endogenous SOS1 protein (Homo sapiens, UniProt Q07889)
T1 construct: HEK293 cells were engineered to express a HiBiT-tagged endogenous SOS1 protein; endogenous in cells; host or cells: HEK293 cells, engineered so that endogenous SOS1 carries a HiBiT tag
T1 sequence (Q07889 1-1333): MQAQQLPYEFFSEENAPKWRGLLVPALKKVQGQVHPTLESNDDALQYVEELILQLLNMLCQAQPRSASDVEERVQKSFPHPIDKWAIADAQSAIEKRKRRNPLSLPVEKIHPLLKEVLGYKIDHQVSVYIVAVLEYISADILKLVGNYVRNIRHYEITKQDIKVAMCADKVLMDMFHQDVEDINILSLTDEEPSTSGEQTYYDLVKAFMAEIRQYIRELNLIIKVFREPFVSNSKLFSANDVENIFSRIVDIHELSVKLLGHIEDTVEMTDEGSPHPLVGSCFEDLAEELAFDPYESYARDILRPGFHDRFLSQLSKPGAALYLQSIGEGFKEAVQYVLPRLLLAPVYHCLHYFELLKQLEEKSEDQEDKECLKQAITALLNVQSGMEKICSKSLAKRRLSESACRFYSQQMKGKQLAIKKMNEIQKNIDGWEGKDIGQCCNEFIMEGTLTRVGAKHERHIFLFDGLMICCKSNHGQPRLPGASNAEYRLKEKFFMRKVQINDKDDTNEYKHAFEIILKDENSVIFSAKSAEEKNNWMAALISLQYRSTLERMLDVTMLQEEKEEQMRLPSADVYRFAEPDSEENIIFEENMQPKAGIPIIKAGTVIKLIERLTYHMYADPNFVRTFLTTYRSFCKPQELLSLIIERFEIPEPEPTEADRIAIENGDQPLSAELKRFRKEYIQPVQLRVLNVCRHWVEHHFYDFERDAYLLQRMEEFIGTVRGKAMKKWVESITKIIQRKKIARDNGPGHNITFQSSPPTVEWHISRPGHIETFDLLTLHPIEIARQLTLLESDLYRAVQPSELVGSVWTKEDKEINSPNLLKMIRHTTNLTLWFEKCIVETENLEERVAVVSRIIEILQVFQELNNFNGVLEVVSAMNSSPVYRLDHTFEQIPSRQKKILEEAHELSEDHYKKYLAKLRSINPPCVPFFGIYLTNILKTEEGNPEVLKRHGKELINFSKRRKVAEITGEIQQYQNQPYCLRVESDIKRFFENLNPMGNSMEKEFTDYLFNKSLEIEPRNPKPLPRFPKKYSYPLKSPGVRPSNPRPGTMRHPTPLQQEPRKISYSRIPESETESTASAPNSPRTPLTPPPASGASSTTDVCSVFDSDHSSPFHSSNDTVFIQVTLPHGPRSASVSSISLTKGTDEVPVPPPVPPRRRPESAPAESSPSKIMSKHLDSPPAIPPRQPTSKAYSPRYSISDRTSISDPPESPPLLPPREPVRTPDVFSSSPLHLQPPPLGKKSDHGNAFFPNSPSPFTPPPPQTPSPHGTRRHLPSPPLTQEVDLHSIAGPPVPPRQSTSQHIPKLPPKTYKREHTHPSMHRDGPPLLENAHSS
Experiment: SOS1-HiBiT Degradation Assay
Assay type: cell-based
Settings: HEK293 cells expressing HiBiT-tagged endogenous SOS1, 6 h treatment
Description: HEK293 cells were engineered to express a HiBiT-tagged endogenous SOS1 protein. The cells were cultured in DMEM media supplemented with 10% fetal bovine serum, streptomycin, and penicillin. The cells were seeded in a white walled 384-well plate at 12,500 cells/well in 50 μL culture media. The cells were incubated at 37° C. under 5% CO2 overnight. The cells were then treated with DMSO (control) or a compound for 6 h at 37° C. under 5% CO2. After incubation, 25 μL media was removed from each cell and 25 μL NANO-GLO® lytic detection reagent was added to each well. After a 10 min incubation with shaking, luminescence was measured using a PERKINELMER ENVISION® multimode plate reader.
The results are summarized in Table 1, where “A” represents a DC50 of no greater than 100 nM, “B” represents a DC50 of greater than 100 nM and no greater than 500 nM; “C” represents a DC50 of greater than 500 nM and no greater than 2 μM; and “D” represents a DC50 of greater than 2 μM; and where “A′” represents a Dmax of no less than 70%, “B′” represents a Dmax of less than 70% and no less than 50%; “C′” represents a Dmax of less than 50% and no less than 30%; and “D′” represents a Dmax of less than 30%. Compounds C1 and C2 are (R)-2-(3-(1-((6,7-dimethoxy-2-methylquinazolin-4-yl)amino)ethyl)phenyl)-2,2-difluoroethan-1-ol and (R)—N-(1-(3-amino-5-(trifluoromethyl)phenyl)ethyl)-6,7-dimethoxy-2-methylquinazolin-4-amine, respectively.

SMILES | DC50 [µM] | Dmax [%]
COc1cc2nc(C)nc(N[C@H](C)c3cccc(C(F)(F)CO)c3)c2cc1OC [Compound C1, (R)-2-(3-(1-((6,7-dimethoxy-2-methylquinazolin-4-yl)amino)ethyl)phenyl)-2,2-difluoroethan-1-ol] | > 10 | 0
COc1cc2nc(C)nc(N[C@H](C)c3cc(N)cc(C(F)(F)F)c3)c2cc1OC [Compound C2, (R)—N-(1-(3-amino-5-(trifluoromethyl)phenyl)ethyl)-6,7-dimethoxy-2-methylquinazolin-4-amine] | > 10 | 0
